Test results as given in the NIST ThermoML archive (doi:10.1021/je0603325).

Assay: molar heat capacity at constant pressure; xn = mol fraction of the nth substance listed
Settings: 101 kPa, Liquid, Small sample (50 mg) DSC

BrCCBr [1,2-dibromoethane] + CCCCCCC
molar heat capacity at constant pressure [J/K/mol]
Settings	x1 = 0.1016	x1 = 0.2016	x1 = 0.2989	x1 = 0.3977	x1 = 0.4996	x1 = 0.5991	x1 = 0.6928	x1 = 0.8022	x1 = 0.9003	x1 = 1
293.15 K	213.58	204.39	196.15	187.73	179.31	170.59	162.47	153.18	144.9	136.87
294.15 K	213.9	204.73	196.48	188.03	179.43	170.8	162.6	153.26	144.94	136.9
295.15 K	214.26	204.92	196.66	188.2	179.65	170.96	162.81	153.4	145.07	136.95
296.15 K	214.59	205.3	196.95	188.51	179.89	171.13	162.9	153.53	145.16	136.99
297.15 K	214.9	205.51	197.29	188.66	180.09	171.23	163.05	153.63	145.24	137.02
298.15 K	215.25	205.83	197.53	188.94	180.26	171.4	163.18	153.72	145.27	137.04
299.15 K	215.55	206.18	197.72	189.11	180.39	171.55	163.24	153.84	145.33	137.09
300.15 K	215.9	206.45	198	189.43	180.66	171.77	163.47	153.91	145.4	137.11
301.15 K	216.32	206.71	198.31	189.64	180.79	171.9	163.5	153.98	145.47	137.15
302.15 K	216.6	207.03	198.6	189.82	181.03	172.01	163.71	154.13	145.6	137.2
303.15 K	216.95	207.33	198.77	190.01	181.17	172.23	163.89	154.24	145.65	137.25
304.15 K	217.33	207.57	199.17	190.33	181.4	172.31	163.94	154.32	145.75	137.29
305.15 K	217.7	207.95	199.39	190.62	181.54	172.49	164.06	154.37	145.77	137.32
306.15 K	218.07	208.28	199.58	190.75	181.72	172.71	164.29	154.55	145.83	137.39
307.15 K	218.39	208.47	199.9	191.03	181.95	172.88	164.4	154.6	145.96	137.42
308.15 K	218.69	208.8	200.2	191.31	182.17	173	164.48	154.68	146.01	137.49
309.15 K	219.1	209.1	200.37	191.5	182.37	173.19	164.7	154.79	146.13	137.53
310.15 K	219.41	209.5	200.65	191.66	182.48	173.29	164.8	154.9	146.2	137.6
311.15 K	219.69	209.78	200.99	191.91	182.68	173.5	164.88	155	146.21	137.65
312.15 K	220.11	210.1	201.15	192.12	182.91	173.69	165.06	155.16	146.3	137.71
313.15 K	220.35	210.39	201.51	192.42	183.06	173.84	165.16	155.25	146.43	137.77
